Data: patent publication US6403561B1, “Tripeptidylpeptidase inhibitors” (Institut National de la Sante et de la Recherche Medicale …, priority 1998, dated 2002)
Where a name gives a salt, the structure may show the parent alone. Where a SMILES comes first, the peptide text is derived from it. [ ]: non-standard residue; d: D form. The star is where a group is joined. Oic = O=C(O)[C@@H]1C[C@@H]2CCCC[C@@H]2N1; Tic = O=C(O)[C@@H]1Cc2ccccc2CN1; Abu = CC[C@H](N)C(=O)O; NHBu = CCCCN*

Tests used:
[1] = biological target: membrane-bound tripeptidylpeptidase II (Rattus norvegicus, UniProt Q64560); test: Measurement of the activity of membrane-bound tripeptidylpeptidase (release of Amc from A-AP-Amc, fluorimetry); settings: apparent dissociation constant calculated from the 50% inhibitory concentration and the KM of the substrate (23 μM), rat brain membranes, 50 μM A-AP-Amc
Sequence of membrane-bound tripeptidylpeptidase II (Q64560 whole entry): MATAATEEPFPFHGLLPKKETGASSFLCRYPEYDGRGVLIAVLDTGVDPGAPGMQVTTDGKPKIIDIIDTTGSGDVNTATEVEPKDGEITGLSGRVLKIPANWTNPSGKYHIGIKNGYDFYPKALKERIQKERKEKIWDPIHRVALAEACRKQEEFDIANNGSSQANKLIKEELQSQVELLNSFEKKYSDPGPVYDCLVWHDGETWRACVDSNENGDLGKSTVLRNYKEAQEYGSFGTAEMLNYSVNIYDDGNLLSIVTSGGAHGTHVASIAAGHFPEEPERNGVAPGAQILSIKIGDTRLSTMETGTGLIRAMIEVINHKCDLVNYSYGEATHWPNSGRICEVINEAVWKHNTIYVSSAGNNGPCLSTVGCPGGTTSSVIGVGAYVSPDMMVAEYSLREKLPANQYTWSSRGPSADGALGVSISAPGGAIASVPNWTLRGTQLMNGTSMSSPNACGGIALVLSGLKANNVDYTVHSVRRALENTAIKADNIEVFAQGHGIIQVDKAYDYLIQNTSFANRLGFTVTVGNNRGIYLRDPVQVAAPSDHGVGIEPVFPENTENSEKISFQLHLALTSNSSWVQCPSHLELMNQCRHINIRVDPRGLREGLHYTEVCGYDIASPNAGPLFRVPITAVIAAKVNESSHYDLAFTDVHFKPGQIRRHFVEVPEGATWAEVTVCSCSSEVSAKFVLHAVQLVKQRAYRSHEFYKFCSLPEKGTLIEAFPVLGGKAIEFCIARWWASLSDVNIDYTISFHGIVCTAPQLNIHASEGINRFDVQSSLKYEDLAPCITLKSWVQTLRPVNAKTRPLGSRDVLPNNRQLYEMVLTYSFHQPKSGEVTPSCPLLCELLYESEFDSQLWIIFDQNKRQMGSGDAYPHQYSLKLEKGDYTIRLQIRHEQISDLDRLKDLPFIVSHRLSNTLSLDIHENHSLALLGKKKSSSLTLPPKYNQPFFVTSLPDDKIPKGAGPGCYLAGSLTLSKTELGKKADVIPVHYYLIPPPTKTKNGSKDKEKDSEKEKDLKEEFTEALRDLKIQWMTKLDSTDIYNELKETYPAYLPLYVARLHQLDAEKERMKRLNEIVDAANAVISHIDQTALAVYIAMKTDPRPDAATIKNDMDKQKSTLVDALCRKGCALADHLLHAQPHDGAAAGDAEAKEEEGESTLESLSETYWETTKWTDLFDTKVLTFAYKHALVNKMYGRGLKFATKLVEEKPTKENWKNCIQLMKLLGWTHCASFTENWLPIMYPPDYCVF
Experimental: Membranes from rat brain were obtained by centrifugation (200,000×g min) of a homogenate prepared in 10 volumes of 50 mM potassium phosphate buffer, pH 7.4.
After washing thoroughly, the centrifugation pellet is taken up in the buffer containing 10% glycerol and 0.1% Brij 35 in order to obtain a concentration of 25 mg of proteins/ml.
The release of Amc is evaluated by fluorimetry.

liver TPP II = biological target: T1, liver TPP II (Mus musculus, UniProt Q64514); test: Inhibitory activity of TPP II ex vivo after administration to a rodent; type: in vivo; settings: mice, 90 minutes after oral administration of 10 mg/kg
T1 construct: measuring the residual catalytic activity on membranes from brain or from a peripheral organ; from tissue; host or cells: mouse liver (membranes), ex vivo after oral dosing
T1 sequence (Q64514 whole entry): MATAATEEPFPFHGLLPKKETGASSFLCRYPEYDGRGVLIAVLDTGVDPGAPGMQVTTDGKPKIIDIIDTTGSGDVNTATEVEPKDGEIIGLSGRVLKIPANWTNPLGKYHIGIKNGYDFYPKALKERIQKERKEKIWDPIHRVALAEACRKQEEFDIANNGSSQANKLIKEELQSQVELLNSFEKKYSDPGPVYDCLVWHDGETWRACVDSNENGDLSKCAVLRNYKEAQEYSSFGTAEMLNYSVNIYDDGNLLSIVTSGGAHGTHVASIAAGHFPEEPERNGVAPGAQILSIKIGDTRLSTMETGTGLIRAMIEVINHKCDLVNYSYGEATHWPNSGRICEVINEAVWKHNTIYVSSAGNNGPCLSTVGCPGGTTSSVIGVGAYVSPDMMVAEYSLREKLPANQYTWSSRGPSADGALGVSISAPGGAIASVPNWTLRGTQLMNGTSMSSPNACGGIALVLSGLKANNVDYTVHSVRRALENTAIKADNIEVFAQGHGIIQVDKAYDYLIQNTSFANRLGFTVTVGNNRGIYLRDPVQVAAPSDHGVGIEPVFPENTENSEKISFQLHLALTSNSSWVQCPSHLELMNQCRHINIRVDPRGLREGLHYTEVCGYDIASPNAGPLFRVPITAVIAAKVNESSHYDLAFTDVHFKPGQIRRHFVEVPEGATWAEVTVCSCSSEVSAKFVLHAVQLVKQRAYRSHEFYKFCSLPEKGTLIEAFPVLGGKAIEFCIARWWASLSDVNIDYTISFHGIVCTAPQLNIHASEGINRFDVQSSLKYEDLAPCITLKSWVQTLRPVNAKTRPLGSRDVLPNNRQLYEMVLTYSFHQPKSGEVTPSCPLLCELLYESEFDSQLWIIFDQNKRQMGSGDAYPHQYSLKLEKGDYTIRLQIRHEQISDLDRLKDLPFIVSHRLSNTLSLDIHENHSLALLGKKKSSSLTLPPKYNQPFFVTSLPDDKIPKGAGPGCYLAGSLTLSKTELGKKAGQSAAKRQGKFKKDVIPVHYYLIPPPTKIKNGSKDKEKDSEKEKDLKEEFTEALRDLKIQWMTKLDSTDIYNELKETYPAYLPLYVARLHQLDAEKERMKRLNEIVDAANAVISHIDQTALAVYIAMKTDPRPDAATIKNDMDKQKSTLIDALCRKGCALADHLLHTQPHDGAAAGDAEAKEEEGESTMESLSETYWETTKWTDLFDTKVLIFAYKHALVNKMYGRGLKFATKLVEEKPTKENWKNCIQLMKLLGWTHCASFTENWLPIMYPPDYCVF
Experimental: This test is completed by an evaluation of the inhibitory activity of TPP II “ex vivo”, which consists in administering a compound according to the invention to a rodent and in measuring the residual catalytic activity on membranes from brain or from a peripheral organ.
For example, the activity of liver TPP II measured in mice 90 minutes after oral administration of 10 mg/kg of the compound of Example 9 is about 90-100% inhibited.

[2] = Anorexigenic (pro-satiety) activity: spontaneous taking of solid food; type: in vivo; settings: mice, 10 mg/kg intravenously, 30 to 90 minutes after free access to food, after overnight fasting
Experimental: In mice, at a dose of 10 mg/kg (intravenously), this compound decreases the spontaneous taking of solid food (“UAR” tablet) by 45%, measured over a period of 30 to 90 minutes after free access to this food (period preceded by fasting overnight and oral administration of 0.2 ml of a semi-liquid meal).

endogenous CCK-8 = test: Protection of endogenous CCK-8 released from slices of depolarized rat cerebral cortex (radioimmunoassay); type: cell-based; settings: concentration of 1 μM
Experimental: At a concentration of 1 μM, it multiplies the recovery of released CCK-8 4-fold (measured by radioimmunoassay).

| melting point [°C] | SMILES | also measured |
| --- | --- | --- |
|  | CC(C)[C@H](NC(=O)[C@@H]1CCCN1C(=O)[C@H](C)N)B1OC2CC3CC(C3(C)C)C2(C)O1 (stereo partly drawn) [Example 9, L-alanyl-L-prolyl-L-borovaline pinanediol ester] | Ki [1]: 0.3 nM; inhibition of the activity of liver TPP II (liver TPP II): 90-100% |
| 156.5 to 158 | CCCCNC(=O)[C@@H]1Cc2cc(O)ccc2N1C(=O)[C@@H](N)CC.O=C(O)C(=O)O [Example 33, 1-(2(S)-aminobutyryl)-5-hydroxyindoline-2(S)-carboxylic Acid Butylamide Oxalate] | Ki ([1]; Ki): 6.6 nM |
| 144.7 to 146.2 | CCCCNC(=O)[C@@H]1Cc2c(OCC)cccc2N1C(=O)[C@@H](N)CC.O=C(O)C(=O)O [Example 31, 1-(2(S)-aminobutyryl)-4-ethoxyindoline-2(S)-carboxylic Acid Butylamide Oxalate] | Ki ([1]; Ki): 29 nM |
| 58 to 61 | CC[C@H](N)C(=O)N1CCC[C@H]1C(=O)NCC(C)C (as salt: trifluoroacetate) [Example 7, 1-(2(S)-amino-butyryl)-L-proline isobutylamide] |  |
| 117 to 119 | CCCCNC(=O)C1Cc2c(OC)cccc2N1C(=O)[C@@H](N)CC.O=C(O)C(=O)O (mixture of isomers) [Example 27, 1-(2(S)-aminobutyryl)-4-methoxyindoline-2(R/S)-carboxylic Acid Butylamide Oxalate] |  |
|  | CCCCNC(=O)[C@@H]1C[C@@H]2CCCC[C@@H]2N1C(=O)[C@@H](N)CC [Example 22, 1-(2(S)-aminobutyryl)-2(S)-[(3aS,7aS)-perhydro]indolinecarboxylic Acid N-butylamide] (H-[Abu]-[Oic]-NHBu) | Ki ([1]; Ki): 560 nM; decrease of the spontaneous taking of solid food [2]: 45%; recovery of released CCK-8 (endogenous CCK-8): 4 fold |
| 141 to 143 | CCCCNC(=O)[C@@H]1Cc2cc(OC)ccc2N1C(=O)[C@H](C)N.O=C(O)C(=O)O [Example 26, 1-(L-alanyl)-5-methoxyindoline-2(S)-carboxylic Butylamide Oxalate] | Ki ([1]; Ki): 7.5 nM |
| 135 to 136 | CC[C@H](C)CNC(=O)[C@@H]1CCCN1C(=O)[C@@H](N)CC (as salt: oxalate) [Example 5, 1-(2(S)-aminobutyryl)-L-proline [2(S)methyl]butylamide] |  |
| 105 to 110 | CCCCNC(=O)[C@@H]1Cc2ccccc2CN1C(=O)[C@@H](N)CC (as salt: oxalate) [Example 13, 2-(2(S)-amino-butyryl)-1,2,3,4-tetrahydro-3(S)-isoquinolinecarboxylic Acid n-butylamide] (H-[Abu]-[Tic]-NHBu) |  |
| 112 to 120 | CCCCNC(=O)C1Cc2cc(OC)ccc2N1C(=O)[C@@H](N)C(C)C.O=C(O)C(=O)O (mixture of isomers) [Example 24, 1-(L-valyl)-5-methoxyindoline-2(R/S)-carboxylic Acid Butylamide Oxalate] |  |
| 168 to 169 | CCCCNC(=O)[C@@H]1C[C@@H]2CCCC[C@@H]2N1C(=O)[C@@H](N)CC (as salt: salt) [Example 22, 1-(2(S)-aminobutyryl)-2(S)-[(3aS,7aS)-perhydro]indolinecarboxylic Acid N-butylamide] (H-[Abu]-[Oic]-NHBu) |  |
| 138 to 139 | CC[C@H](N)C(=O)N1c2ccccc2C[C@H]1C(=O)NC (as salt: oxalate) (hydrate or solvate) [Example 16, 1-(2(S)-aminobutyryl)-2(S)-indolinecarboxylic Acid methylamide] |  |
| 196.1 to 197.5 | CCCCNC(=O)C1Cc2c(ccc(OC)c2OC)N1C(=O)[C@@H](N)CC.O=C(O)C(=O)O (mixture of isomers) [Example 32, 1-(2(S)-aminobutyryl)-4,5-dimethoxyindoline-2(R/S)-carboxylic Acid Butylamide Oxalate] |  |
| 165 to 166 | CCCCNC(=O)[C@@H]1CCCN1C(=O)[C@@H](N)C(C)C (as salt: oxalate) [Example 8, L-valyl-L-proline n-butylamide] (H-Val-Pro-NHBu) |  |
